Entries after “also recorded” stand apart in the source; their conditions may differ. In the oligonucleotide strings, read from the 5' end, every base follows the letter of its sugar. An asterisk marks phosphorothioate; unmarked linkages are phosphodiester. Other units and linkages are bracketed, terminal groups are in braces. A string of capitals states the bases alone. e = 2'-O-(2-methoxyethyl) (MOE); [5mC] = 5-methylcytosine; d = 2'-deoxy (DNA)
Experiments:
bradykinin = test: Colitis Study E: bradykinin levels in colon; assay type: in vivo, Swiss Webb mice; conditions: for Bradykinin levels in the colons: DSS-treated mice, day 7, 40 mpk
Experimental: Two groups 8 Swiss Webb mice were dosed with 40 mg/kg of ISIS 404071 injected subcutaneously twice a week for 3 weeks. Two control groups of 8 Swiss Webb mice were dosed with PBS subcutaneously twice a week for 3 weeks. Both the ASO treated groups and one of the control groups were then given 4% DSS in distilled water for 7 days ad libitum. One of the ASO and DSS treated groups was also given intravenous injections of 20 μg of recombinant human Factor XI protein (Haematologic Technologies Inc.) for 7 consecutive days, starting the day before DSS treatment. Mice were sacrificed at the end of the study on day 7 after DSS was administered.
The effect of antisense inhibition of Factor XI on kinin levels in the colon was evaluated (Phoenix Pharmaceuticals, Burlingame, Calif.) at the end of the study on day 7 after DSS was administered and the results are presented in Table 40.

murine Factor XI protein = test: In vivo antisense inhibition of murine Factor XI: plasma protein analysis (Example 10); conditions: BALB/c mice; for % inhibition: Factor XI protein, relative to PBS control
Experimental: BALB/c mice were injected with 5 mg/kg, 10 mg/kg, 25 mg/kg, or 50 mg/kg of ISIS 404057 or ISIS 404071 twice a week for 3 weeks. A control group of mice was injected with phosphate buffered saline (PBS) twice a week for 3 weeks. Mice were sacrificed 5 days after receiving the last dose. Whole liver was harvested for RNA analysis and plasma was collected for protein analysis.
Results are presented as percent inhibition of Factor XI, relative to PBS control.

[1] = tested on: collagen-induced arthritis (CIA) model; test: Arthritis Study A: collagen-induced arthritis (Example 11); assay type: in vivo, DBA/1J mice; conditions: for incidence of CIA (in words): 20 mg/kg
Experimental: The effect of inhibition of Factor XI and its role in fibrin accumulation in the joints leading to joint inflammation and rheumatoid arthritis was evaluated in a murine collagen-induced arthritis (CIA) model. […] Arthritis induced in mice administered collagen can be visually assessed and clinically scored as described by Marty et al. (J Clin Invest, 107:631-640, 2001) where 1 point is given for each swollen digit except the thumb (maximum, 4), 1 point is given for the tarsal or carpal joint, and 1 point is given for the metatarsal or metacarpal joint with a maximum score of […]. Each paw was graded individually, the cumulative clinical arthritic score per mouse reaching a maximum of 22 points
In a group of 15 DBA/1J mice, 20 mg/kg of ISIS 404071 was injected subcutaneously twice a week for 12 weeks. One control group of 15 mice was injected with 20 mg/kg of ISIS 403102 twice a week for 12 weeks. Two control groups of 15 mice each were injected with PBS twice a week for 12 weeks. Two weeks after the first oligonucleotide dose, type II bovine collagen (Chondrex Inc, Redmond, Wash.) was mixed with complete Freund's adjuvant, homogenized on ice and the emulsion, containing 100 μg of collagen, was injected subcutaneously at the base of the tail in the Factor XI group, the Factor VII group and one of the PBS control groups. A booster injection containing 100 μg collagen type II in incomplete Freund's adjuvant was injected subcutaneously at the base of the tail at a different injection site on day 21 after the first collagen injection in these groups.
Starting 35 days from the first collagen injection, mice in all groups were examined daily for the visual appearance of arthritis, such as swelling and stiffness, in peripheral joints. The results are presented in Table 20 (expressed as a percentage of the PBS control) and in FIGS. 1-3.
‘Incidence of CIA’ refers to the percentage of mice in each group that had CIA at day 40. The ‘percentage of paws affected’ refers to the percentage of paws out of a total of 60 paws in each group of mice that were affected with arthritis. ‘Average number of affected paws’ refers to the number of affected paws in mice that were diagnosed to have arthritis. The ‘clinical severity of CIA’ was scored as described by Marty et al. (J Clin Invest, 107:631-640, 2001) and as follows: 1 point for each swollen digit except the thumb (maximum, 4), 1 point for the tarsal or carpal joint, and 1 point for the metatarsal or metacarpal joint with a maximum score of 6 for a hindpaw and 5 for a forepaw. Each paw was graded individually, the cumulative clinical arthritic score per mouse reaching a maximum of 22 points.

[2] = tested on: DSS-induced colitis model; test: Colitis Study F: body weight, stool scores, colon length and weight; assay type: in vivo, Swiss Webb mice; conditions: DSS-treated mice, 50 mg/kg, Day 8
[3] = tested on: soluble CD40 ligand (CD40L); test: Colitis Study D: CD40L levels; assay type: in vivo, Swiss Webb mice; conditions: for CD40L levels in colon: DSS-treated mice
Experimental: In a first group of 8 Swiss Webb mice, 10 mg/kg of ISIS 404071 was injected subcutaneously twice a week for 3 weeks. In a second group of 8 Swiss Webb mice, 20 mg/kg of ISIS 404057 was subcutaneously injected twice a week for 3 weeks. In a third control group of 8 Swiss Webb mice, 40 mg/kg of ISISI 404057 was injected subcutaneously twice a week for 3 weeks. Two control groups of 8 mice each were injected with PBS twice a week for 3 weeks. After the oligonucleotide treatment, 4% DSS in water was administered ad libitum for 7 days to all the experimental groups and one PBS control group.
Plasma levels of soluble CD40 ligand (CD40L) are known to be elevated in cases of inflammatory bowel disease (Ludwiczek, O. et al., Int. J. Colorectal Disease. 2003. 18: 142-147) and may be considered a marker of intestinal inflammation. […]

In the case of “TGGTAATCCACTTTCAGAGG (eT*eG*eG*eT*eA*dA*dT*d[5mC]*d[5mC]*dA*d[5mC]*dT*dT*dT*d[5mC]*eA*eG*eA*eG*eG) [ISIS 404071, 5-10-5 MOE gapmer targeting murine Factor XI, target start site 869]”, the “bradykinin levels (in words)” value (bradykinin; Colitis Study E, day 7) was “decreased”, the “Bradykinin levels in the colons” value (bradykinin; no human recombinant FXI) was 0.1 ng/mg and the “Bradykinin levels in the colons” value (bradykinin; plus human recombinant FXI 20 ug/mouse/day) was 0.3 ng/mg. For the same sequence, the “Factor XI protein (in words)” value (murine Factor XI protein; 5-50 mg/kg twice a week for 3 weeks) was “significant dose-dependent reduction of Factor XI protein”, the “% inhibition” value (murine Factor XI protein; 5 mg/kg twice a week for 3 weeks) was 39% and the “% inhibition” value (murine Factor XI protein; 10 mg/kg twice a week for 3 weeks) was 67%. For the same sequence, the “% inhibition” value (murine Factor XI protein; 25 mg/kg twice a week for 3 weeks) was 89%, the “% inhibition” value (murine Factor XI protein; 50 mg/kg twice a week for 3 weeks) was 96% and the “incidence of CIA (in words)” value ([1]; Arthritis Study A) was “significantly inhibit the incidence of CIA”. The “incidence of CIA (in words)” value ([1]; Arthritis Study A, listed as Factor XI ASO) was “lower incidence of CIA”, the “affected paws (in words)” value ([1]; Arthritis Study A, FIG. 1B and 2A, listed as Factor XI ASO) was “lower incidence of affected paws; also recorded: fewer affected paws on average” and the “arthritis severity (in words)” value ([1]; Arthritis Study A, FIG. 2B) was “less severe arthritis than the control mice”. The “timeline of CIA incidence (in words)” value ([1]; Arthritis Study A, FIG. 3) was “developed CIA at a later stage with fewer affected mice”, the “Average no. of paws affected” value ([1]; DBA/1J mice, 20 mg/kg s.c. twice a week for 12 weeks, in mice diagnosed with arthritis) was 1 and the “% of paws affected” value ([1]; DBA/1J mice, 20 mg/kg s.c. twice a week for 12 weeks, out of 60 paws per group) was 3%. The “% of CIA” value ([1]; DBA/1J mice, 20 mg/kg s.c. twice a week for 12 weeks, percentage of mice in group with CIA at day 40) was 13%, the “Clinical severity of CIA” value ([1]; DBA/1J mice, 20 mg/kg s.c. twice a week for 12 weeks, score of Marty et al., maximum 22 points) was 1 and the Stool score [2] was 2. The “CD40L levels (in words)” value ([3]; Colitis Study D) was “decreased”, the “CD40L levels in colon” value ([3]; 10 mpk) was 0.19 ng/mg protein and the “CD40L levels in colon” value ([3]; 20 mpk) was 0.26 ng/mg protein. The “CD40L levels in colon” value ([3]; 40 mpk) was 0.39 ng/mg protein.
